Experimental data reported in patent publication US10407467B2, “Polymyxin derivatives and their use in combination therapy together with different antibiotics” (priority 2013, dated 2019).
Values after ≈ are worked out from the molar mass of the structure shown. Values joined by “and” are separate entries in the source; they are usually repeats but may differ in a detail not shown here. Identical values can stand only once. Counter-ions that a name gives are not always drawn. Like-named read-outs stand apart in the source and are kept apart here. Bridge positions count the residues as written; N and C are the ends. Square brackets hold non-standard residues; d marks the D form. Peptide text beside a SMILES is read from it. * marks the point of attachment. Dab = NCC[C@H](N)C(=O)O; X3 = O=C([C@H]1CCCNC1)*

Tests used:
Acinetobacter baumannii [1] = test: MIC, compound in combination with a second agent (broth microdilution); assay type: cell-based; conditions: 1:1 (wt:wt) combination with Rifampicin; for MIC: Acinetobacter baumannii
In short: (§1)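 Broth microdilution with inoculum from 18-24 h Mueller-Hinton agar colonies adjusted to 0.5 McFarland, up to four strains per species. Compound combined 1:1 w/w with second agent (e.g. rifampicin), mass as salt form; MIC is total drug concentration. Duplicates, lower value reported if within 2-fold; modal value for repeat tests.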

Escherichia coli [2] = test: as above; assay type: cell-based; conditions: 1:1 (wt:wt) combination with Rifampicin; for MIC: Escherichia coli
In short: as §1

Klebsiella pneumoniae [3] = test: as above; assay type: cell-based; conditions: 1:1 (wt:wt) combination with Rifampicin; for MIC: Klebsiella pneumoniae
In short: as §1

Pseudomonas aeruginosa [4] = test: as above; assay type: cell-based; conditions: 1:1 (wt:wt) combination with Rifampicin; for MIC: Pseudomonas aeruginosa
In short: as §1

Acinetobacter baumannii [5] = test: MIC, sole activity (no second agent); assay type: cell-based; conditions: Table 6A; no second agent; different supplier of Cation-adjusted MHB
In short: (§2)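 Compound tested without a second agent in cation-adjusted MHB, up to four strains per species, inoculum at 0.5 McFarland from colonies grown 18-24 h on Mueller-Hinton agar. Run in duplicate, invalid beyond 2-fold disagreement, lower duplicate or modal repeat value given, expressed relative to Polymyxin B.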

Escherichia coli [6] = test: MIC, sole activity (no second agent); assay type: cell-based; conditions: Table 6A; no second agent; different supplier of Cation-adjusted MHB
In short: as §2

Klebsiella pneumoniae [7] = test: MIC, sole activity (no second agent); assay type: cell-based; conditions: Table 6A; no second agent; different supplier of Cation-adjusted MHB
In short: as §2

Pseudomonas aeruginosa [8] = test: MIC, sole activity (no second agent); assay type: cell-based; conditions: Table 6A; no second agent; different supplier of Cation-adjusted MHB
In short: as §2

P. aeruginosa ATCC27853 = assay type: in vivo, Pseudomonas aeruginosa; conditions: ATCC27853, in vivo, iv, 5 mg/kg, 6 h
Protocol: Compounds were administered in solution by intravenous (IV) bolus injection into the lateral tail vein. […] At 1 hour post infection, 4 animals were humanely euthanized using pentabarbitone overdose to provide a pre-treatment control group. At 9 hours post infection, the clinical condition of all animals was assessed prior to them being humanely euthanized by pentabarbitone overdose. Animal weight was determined before both thighs were removed and weighed individually. Individual thigh tissue samples were homogenized in ice cold sterile phosphate buffered saline. Thigh homogenates were then quantitatively cultured onto CLED agar and incubated at 37° C. for 24 hours before colonies were counted.

HK-2 cell line = test: In vitro renal cell toxicity assay (resazurin reduction); assay type: cell-based, human
K. pneumoniae = test: MIC against panel of strains enriched for resistance to colistin or polymyxin B (CLSI), alone or 1:1 with rifampicin; assay type: cell-based, Klebsiella pneumoniae; conditions: one value per strain of the panel
Protocol: (§3) […] For example, a well at 2 μg/mL consisted of 1 μg/mL test compound and 1 μg/mL rifampicin.
(§4) • where n indicates the number of strains within the panel for a particular organism.

P. aeruginosa = test: as above; assay type: cell-based, Pseudomonas aeruginosa; conditions: one value per strain of the panel
Protocol: as §3, §4

[9] = MIC is total drug concentration

Structure (SMILES): CC(C)C[C@@H]1NC(=O)[C@@H](Cc2ccccc2)NC(=O)[C@H](CCN)NC(=O)[C@@H](NC(=O)[C@H](CCN)NC(=O)[C@@H](NC(=O)[C@H]2CCCNC2)[C@@H](C)O)CCNC(=O)[C@H]([C@@H](C)O)NC(=O)[C@H](CCN)NC(=O)[C@H](CCN)NC1=O [Example 37, (S)-Piperidine-3-carbonyl polymyxin B nonapeptide, trifluoroacetate salt] (X3-T[Dab][Dab][Dab][dF]L[Dab][Dab]T; lactam 3-C)
- MIC A. baumannii ATCC BAA-747 (Acinetobacter baumannii [1]; MIC = total drug concentration, strain ATCC BAA-747): ≤0.06 micrograms/mL
- MIC A. baumannii CCUG57249 (Acinetobacter baumannii [1]; MIC = total drug concentration, strain CCUG57249): ≤0.06 micrograms/mL
- MIC A. baumannii NCTC 13423 (Acinetobacter baumannii [1]; MIC = total drug concentration, strain NCTC 13423): ≤0.06 micrograms/mL
- MIC A. baumannii NCTC 13424 (Acinetobacter baumannii [1]; MIC = total drug concentration, strain NCTC 13424): ≤0.06 micrograms/mL
- MIC A. baumannii ATCC BAA-747 (Acinetobacter baumannii [1]; [9]): ≤0.06 micrograms/mL
- MIC A. baumannii CCUG57249 (Acinetobacter baumannii [1]; [9]): ≤0.06 micrograms/mL
- MIC A. baumannii NCTC 13423 (Acinetobacter baumannii [1]; [9]): ≤0.06 micrograms/mL
- MIC A. baumannii NCTC 13424 (Acinetobacter baumannii [1]; [9]): ≤0.06 micrograms/mL
- MIC E. coli ATCC25922 (Escherichia coli [2]; MIC = total drug concentration, strain ATCC25922): 0.125 micrograms/mL
- MIC E. coli NCTC9001 (Escherichia coli [2]; MIC = total drug concentration, strain NCTC9001): ≤0.06 micrograms/mL
- MIC E. coli ATCC25922 (Escherichia coli [2]; [9]): 0.125 micrograms/mL
- MIC E. coli NCTC9001 (Escherichia coli [2]; [9]): ≤0.06 micrograms/mL
- MIC K. pneumoniae ATCC-BAA-2146 (Klebsiella pneumoniae [3]; MIC = total drug concentration, strain ATCC-BAA-2146): 0.125 micrograms/mL
- MIC K. pneumoniae CCUG-59348 (Klebsiella pneumoniae [3]; MIC = total drug concentration, strain CCUG-59348): 2 micrograms/mL
- MIC K. pneumoniae NCTC 13438 (Klebsiella pneumoniae [3]; MIC = total drug concentration, strain NCTC 13438): 0.125 micrograms/mL
- MIC K. pneumoniae ATCC-BAA-2146 (Klebsiella pneumoniae [3]; [9]): 0.125 micrograms/mL
- MIC K. pneumoniae CCUG-59348 (Klebsiella pneumoniae [3]; [9]): 2 micrograms/mL
- MIC K. pneumoniae NCTC 13438 (Klebsiella pneumoniae [3]; [9]): 0.125 micrograms/mL
- MIC P. aeruginosa ATCC 27853 (Pseudomonas aeruginosa [4]; MIC = total drug concentration, strain ATCC 27853): ≤0.06 micrograms/mL
- MIC P. aeruginosa ATCC CRM-9027 (Pseudomonas aeruginosa [4]; MIC = total drug concentration, strain ATCC CRM-9027): 0.125 micrograms/mL
- MIC P. aeruginosa ATCC-47 (Pseudomonas aeruginosa [4]; MIC = total drug concentration, strain ATCC-47): ≤0.06 micrograms/mL
- MIC P. aeruginosa CCUG 59626 (Pseudomonas aeruginosa [4]; MIC = total drug concentration, strain CCUG 59626): ≤0.06 micrograms/mL
- MIC P. aeruginosa ATCC 27853 (Pseudomonas aeruginosa [4]; [9]): ≤0.06 micrograms/mL
- MIC P. aeruginosa ATCC CRM-9027 (Pseudomonas aeruginosa [4]; [9]): 0.125 micrograms/mL
- MIC P. aeruginosa ATCC-47 (Pseudomonas aeruginosa [4]; [9]): ≤0.06 micrograms/mL
- MIC P. aeruginosa CCUG 59626 (Pseudomonas aeruginosa [4]; [9]): ≤0.06 micrograms/mL
- MIC A. baumannii ATCC BAA-747 (Acinetobacter baumannii [5]): 2 micrograms/mL
- MIC A. baumannii NCTC 13424 (Acinetobacter baumannii [5]): 1 micrograms/mL
- MIC E. coli ATCC25922 (Escherichia coli [6]): 0.5 micrograms/mL
- MIC E. coli NCTC 13441 (Escherichia coli [6]): 0.5 micrograms/mL
- MIC K. pneumoniae ATCC 4352 (Klebsiella pneumoniae [7]): 0.25 micrograms/mL
- MIC K. pneumoniae ATCC BAA-2146 (Klebsiella pneumoniae [7]): 0.25 micrograms/mL
- MIC P. aeruginosa ATCC 27853 (Pseudomonas aeruginosa [8]): 0.5 micrograms/mL
- MIC P. aeruginosa CCUG 59347 (Pseudomonas aeruginosa [8]): 2 micrograms/mL
- log reduction in bacterial counts compared to non-treated control (P. aeruginosa ATCC27853): 1.75 log
- HK-2 IC50 rel to PMB (HK-2 cell line): 21

Structure (SMILES): CO[C@H]1/C=C/O[C@@]2(C)Oc3c(C)c(O)c4c(O)c(c(/C=N/N5CCN(C)CC5)c(O)c4c3C2=O)NC(=O)/C(C)=C\C=C\[C@H](C)[C@H](O)[C@@H](C)[C@@H](O)[C@@H](C)[C@H](OC(C)=O)[C@@H]1C [Rifampicin, reference compound]
- MIC (K. pneumoniae; Klebsiella pneumoniae, read-out: MIC Klebsiella pneumoniae (n = 11), agent alone): 16 µg/mL (≈ 19.4 µM)
- MIC Klebsiella pneumoniae (n = 11) (K. pneumoniae; agent alone): 32 micrograms/mL and > 32 micrograms/mL and >32, 32, 32, micrograms/mL and 32, 32, >32, micrograms/mL and >32, >32 micrograms/mL
- MIC (Acinetobacter baumannii [1]; ATCCBAA747, MIC = total drug concentration, strain ATCC BAA-747, read-out: MIC A. baumannii ATCC BAA-747): 2 µg/mL
- MIC (Acinetobacter baumannii [1]; NCTC13423, MIC = total drug concentration, strain NCTC 13423, read-out: MIC A. baumannii NCTC 13423): 1 µg/mL
- MIC (Acinetobacter baumannii [1]; NCTC13424, MIC = total drug concentration, strain NCTC 13424, read-out: MIC A. baumannii NCTC 13424): 1 µg/mL
- MIC (Acinetobacter baumannii [1]; MIC = total drug concentration, strain CCUG57249, read-out: MIC A. baumannii CCUG57249): 2 µg/mL
- MIC (Escherichia coli [2]; MIC = total drug concentration, strain ATCC25922, read-out: MIC E. coli ATCC25922): 4 µg/mL
- MIC (Escherichia coli [2]; MIC = total drug concentration, strain NCTC9001, read-out: MIC E. coli NCTC9001): 4 µg/mL
- MIC (Klebsiella pneumoniae [3]; ATCC4352, MIC = total drug concentration, strain ATCC 4352, read-out: MIC K. pneumoniae ATCC 4352): 8 µg/mL
- MIC (Klebsiella pneumoniae [3]; ATCCBAA2146, MIC = total drug concentration, strain ATCC-BAA-2146, read-out: MIC K. pneumoniae ATCC-BAA-2146): 16 µg/mL
- MIC (Klebsiella pneumoniae [3]; CCUG59348, MIC = total drug concentration, strain CCUG-59348, read-out: MIC K. pneumoniae CCUG-59348): 32 µg/mL
- MIC (Klebsiella pneumoniae [3]; NCTC13438, MIC = total drug concentration, strain NCTC 13438, read-out: MIC K. pneumoniae NCTC 13438): 16 µg/mL
- MIC (Pseudomonas aeruginosa [4]; ATCC47, MIC = total drug concentration, strain ATCC-47, read-out: MIC P. aeruginosa ATCC-47): 16 µg/mL
- MIC (Pseudomonas aeruginosa [4]; ATCC27853, MIC = total drug concentration, strain ATCC 27853, read-out: MIC P. aeruginosa ATCC 27853): 16 µg/mL
- MIC (Pseudomonas aeruginosa [4]; CCUG59626, MIC = total drug concentration, strain CCUG 59626, read-out: MIC P. aeruginosa CCUG 59626): 16 µg/mL
- MIC (Pseudomonas aeruginosa [4]; MIC = total drug concentration, strain ATCC CRM-9027, read-out: MIC P. aeruginosa ATCC CRM-9027): 16 µg/mL
- MIC (P. aeruginosa; Pseudomonas aeruginosa, read-out: MIC Pseudomonas aeruginosa (n = 6), agent alone): 32 µg/mL (≈ 38.9 µM)
- MIC Pseudomonas aeruginosa (n = 6) (P. aeruginosa; agent alone): 16 micrograms/mL and 32, 32, 32 micrograms/mL
